Data set [1] concerns thrombocytes. Description: Thrombocyte aggregation inhibiting activity in human plasma enriched with thrombocytes (aggregation induced with ADP or collagen). It counts as cell-based. An excerpt: ID50 concentrations in case of aggregation generated with ADP and collagen resp. in plasma enriched with thrombocytes (PRB) isolated from human blood are as disclosed hereinbelow. As a comparison ID50 concentration values obtained with PGI2 sodium salt under the same test conditions are given.

For data set [2] the following is noted: acidic or neutral medium; decomposes to 6-keto-PGF1α; cited from earlier work.
Where [3] appears, read: aggregation induced with ADP, read-out: ID50, thrombocyte aggregation inhibiting activity, ADP.
[4] abbreviates: aggregation induced with collagen, read-out: ID50, thrombocyte aggregation inhibiting activity, collagen.

≈ marks a conversion by molar mass, not a printed value. Counter-ions that a name gives are not always drawn. Like-named read-outs stand apart in the source and are kept apart here.

For `CCCCC[C@H](O)/C=C/[C@@H]1[C@H]2C/C(=C/CCCC(=O)O)O[C@H]2C[C@H]1O` [Sodium salt of PGI2, reference compound], the IC50 in data set [1] (setting [3]) and in data set [1] (setting [4]) was 0.001 to 0.002 µg/mL in each case.
With `CCCCC[C@H](O)/C=C/[C@@H]1[C@H]2C(=O)/C(=C/CCCC(=O)OC)O[C@H]2C[C@H]1O` [7-Oxo-PGI2-methyl ester, 7-Oxo-PGI2-methylester], the values for the IC50 in data set [1] (setting [3]) and in data set [1] (setting [4]) were 0.1 to 0.2 µg/mL (≈ 0.263 to 0.526 µM) and 0.05 µg/mL (≈ 0.131 µM), respectively.
Taken in the same sequence, the figures for `CCCCC[C@H](O)/C=C/[C@@H]1[C@H]2C(=O)/C(=C/CCCC(=O)O)O[C@H]2C[C@H]1O` [Sodium salt of 7-oxo-PGI2] were 0.015 µg/mL and 0.08 µg/mL.
Regarding `CCCCC[C@H](O)/C=C/[C@@H]1[C@H]2C/C(=C/CCCC(=O)O)O[C@H]2C[C@H]1O` [PGI2], in data set [2], the “stability of PGI2” value is recorded as “immediately decomposes”.

The values are drawn from patent publication US4330553A, “7-Oxo-PGI2 -derivatives and process for the preparation thereof and pharmaceutical compositions containing same” (Chinoin Gyogyszer es Vegyeszeti Termekek Gyara R.T., priority 1979, dated 1982).
